Data from patent publication US12285437B2 (The Research Foundation for The State University of new York, priority 2019, dated 2025).
Read-outs that look alike come from different tables or passages of the source.

What was measured:
[1] = system: MDA-MB-231 human breast cancer cells; details: 3 μM
Description: (§1) pH-dependent anti-proliferation assays with cells. In 96-well plates, ˜3,000 cells were seeded per well then grown for 24-48 hr until 30-40% confluency. […] For serum effect cell plate data shown in FIG. 5I, cell viability was measured using alamar Blue assay (i.e., growth media was replaced with 45 μL of pH 7.4 DMEM/F-12 media without phenol red, 5 μL of alamar Blue reagent (10×) was added; fluorescence at 590 nm was recorded after excitation at 560 nm at 1 hr afterwards).
(§2) The reaction solution was allowed to stand at rt for 1 hr in the dark, during which the pH decreased to ˜9.6. After 1 hr, the reaction solution was split into two 50-μL portions (for pH 7.4 vs. pH 6.2-6.8 cell experiments). The pH of one portion was adjusted to pH 8 (for pH 7.4 cell experiments) or pH 7 (for pH 6.2-6.8 cell experiments). Subsequently, the solution was diluted 30-fold (to 10 μM) with pH 7.4 or pH 6.2-6.8 cell media (final volume 1.5 mL) and then filtered (0.2 micron) before used in cell experiments.

[2] = system: SKOV3 human ovarian cancer cells; details: FIG. 9A, 4 μM
Description: as §1, §2

[3] = system: PC-3 human prostate cancer cells; details: FIG. 9B, PC3, […], 4 μM
Description: as §1, §2

[4] = system: noncancerous kidney epithelial HK2 cells; assay: Cytotoxicity assays with noncancerous HK2 kidney cells; type: cell-based, human
Description: Cytotoxicity assays with noncancerous HK2 kidney cells. […] Dox and DMA prodrug experiments were carried out on separate plates. […] The cell viability in vehicle (buffer/DMSO) negative control treatment groups were treated as 100% during normalization of data.

[5] = system: ES2 ovarian cancer cells; assay: Antiproliferation assays against ES2 cancer cells at different pH values; type: cell-based, human; details: ES2, 2 h, 1 μM
Description: For cell experiments, a pH 8 or pH 10 (directly from DMI to DMA conversion) solution of DMA 2/4/6 was sterilized by filtering through a 0.2-micron membrane. […] At this point, small amounts of 10 (or 25) mM of sterile aq.
Antiproliferation assays against ES2 cancer cells at different pH values. […] Treatment solution volume was 50-100 μL per well, with a set volume per well for all wells in a plate.

[6] = system: ES2 cells; assay: Imaging studies (confocal microscopy); type: cell-based, human; details: ES2, 1 h
Description: Afterwards, the treatment solution was removed; the nuclei of the cells were labeled with staining dye Hoechst 33342; and then images were taken on a scanning confocal microscope.
Imaging studies (confocal microscopy). Approximately 8,000 ES2 cells were seeded on a colIagen-coated glass dish (MatTek Corporation, part No. P35GCOL-0-10-C) and cultured in McCoy's 5A medium with 10% fetal bovine serum and 1% penicillin-streptomycin at 37° C. in the incubator (5% CO2) overnight. […] After treatment solution was removed, the cells were washed 1× with 100 μL of DMEM/F12 pH-specific media. Prior to fluorescence imaging, the nuclei of cells were stained with 1 μg/mL Hoechst 33342 in PBS for 20 min at 37° C. in the incubator. Afterwards, cells stayed in pH-specific DMEM/F12 media during imaging. […] The images in FIGS. 33-36 were processed using LAS X and ImageJ.

[7] = system: ES-2 human ovarian cancer cells; assay: pH-dependent anti-proliferation assay (MTS; alamar Blue for FIG. 7I); details: for Cell Viability Average (Avg): FIG. 7A, ES-2, 6 hr
From the text: pH-dependent anti-proliferation assays with cells.
NaOH to adjust the pH to 9.9.

[8] = system: NIH:OVCAR3 human ovarian cancer cells
Description: as §1, §2

[9] = cancer patients, two hours afterwards; cited from earlier work

SMILES: COc1cccc2c1C(=O)c1c(O)c3c(c(O)c1C2=O)C[C@@](O)(C(=O)CO)C[C@@H]3O[C@H]1C[C@H](N)[C@H](O)[C@H](C)O1 [Dox, doxorubicin]
- Cell Viability Avg ([1]; FIG. 7B, MDA-MB231, 2 hr, pH 6.3-6.4): 30%
- Cell Viability Avg ([1]; FIG. 7B, MDA-MB231, 2 hr, pH 7.6-7.7): 15%
- Cell Viability Avg ([1]; FIG. 7F, MDA-MB231, […], pH 6.3-6.4): 30%
- Cell Viability Avg ([1]; FIG. 7F, MDA-MB231, […], pH 6.5): 29%
- Cell Viability Avg ([1]; FIG. 7F, MDA-MB231, […], pH 6.6-6.7): 36%
- Cell Viability Avg ([1]; FIG. 7F, MDA-MB231, […], pH 6.9-7.0): 30%
- Cell Viability Avg ([1]; FIG. 7F, MDA-MB231, […], pH 7.2-7.3): 29%
- Cell Viability Avg ([1]; FIG. 7F, MDA-MB231, […], pH 7.5-7.7): 31%
- Cell Viability Avg ([2]; pH 6.3-6.5): 39%
- Cell Viability Avg ([2]; pH 7.5-7.6): 22%
- Cell Viability Avg ([3]; pH 6.3-6.4): 53%
- Cell Viability Avg ([3]; pH 7.5-7.6): 15%
- viability ([4]; FIG. 29B, HK2, pH 7.4, 30 μM): 21%
- cells killed ([4]; FIG. 30B, HK2, pH 7.4, 1 μM): 20%
- viable cells ([4]; FIG. 30B, HK2, pH 7.4, 30 μM): 31%
- cells killed ([4]; FIG. 31B, HK2, pH 7.4, 30 μM): > 80%
- viability ([5]; pH 6.6-6.8): 60-70%
- viability ([5]; FIG. 29A, pH 6.7): 60-70%
- viability ([5]; FIG. 29A, pH 7.5): 28%
- viability ([5]; FIG. 31A, pH 6.5-6.8): 40-60%
- viability ([5]; FIG. 31A, pH 7.5): ~20%
- distribution of Dox fluorescence within cells [6]: within the nuclei
- Dox fluorescence signals in cells, pH 6.7 vs. 7.7 ([6]; 4 μM Dox or 8 μM prodrug/DMI): More Dox fluorescence signals were observed at pH 7.7 than 6.7
- Cell Viability Average (Avg) ([7]; 0.5 μM, pH 6.6-6.8): 32%
- Cell Viability Average (Avg) ([7]; 0.5 μM, pH 7.2-7.5): 16%
- Cell Viability Avg ([7]; FIG. 7E, ES2, […], 1 μM, pH 6.3-6.4): 43%
- Cell Viability Avg ([7]; FIG. 7E, ES2, […], 1 μM, pH 6.5): 49%
- Cell Viability Avg ([7]; FIG. 7E, ES2, […], 1 μM, pH 6.7-6.8): 44%
- Cell Viability Avg ([7]; FIG. 7E, ES2, […], 1 μM, pH 6.8-6.9): 42%
- Cell Viability Avg ([7]; FIG. 7E, ES2, […], 1 μM, pH 7.2): 25%
- Cell Viability Avg ([7]; FIG. 7E, ES2, […], 1 μM, pH 7.2-7.4): 23%
- Cell Viability Avg ([7]; FIG. 7I, ES2, FBS(50%), 1 μM, pH 6.5-6.9): 71%
- Cell Viability Avg ([7]; FIG. 7I, ES2, FBS(50%), 1 μM, pH 7.2-7.7): 36%
- Cell Viability Avg ([7]; FIG. 7I, ES2, no FBS, 1 μM, pH 6.5-6.9): 77%
- Cell Viability Avg ([7]; FIG. 7I, ES2, no FBS, 1 μM, pH 7.2-7.7): 48%
- Cell Viability Avg ([7]; FIG. 8A, ES2, 0.1 μM, pH 6.6-6.7): 87%
- Cell Viability Avg ([7]; FIG. 8A, ES2, 0.1 μM, pH 7.5-7.6): 62%
- Cell Viability Avg ([7]; FIG. 8A, ES2, 0.3 μM, pH 6.6-6.7): 72%
- Cell Viability Avg ([7]; FIG. 8A, ES2, 0.3 μM, pH 7.5-7.6): 33%
- Cell Viability Avg ([7]; FIG. 8A, ES2, 1 μM, pH 6.6-6.7): 35%
- Cell Viability Avg ([7]; FIG. 8A, ES2, 1 μM, pH 7.5-7.6): 15%
- Cell Viability Avg ([7]; FIG. 8A, ES2, 3 μM, pH 6.6-6.7): 21%
- Cell Viability Avg ([7]; FIG. 8A, ES2, 3 μM, pH 7.5-7.6): 2%
- Cell Viability Avg ([7]; FIG. 8B, ES2, 2 hr, 1 μM, pH 6.6-6.8): 44%
- Cell Viability Avg ([7]; FIG. 8B, ES2, 2 hr, 1 μM, pH 7.2-7.6): 23%
- Cell Viability Avg ([7]; FIG. 8B, ES2, 6 hr, 0.5 μM, pH 6.6-6.8): 32%
- Cell Viability Avg ([7]; FIG. 8B, ES2, 6 hr, 0.5 μM, pH 7.2-7.6): 16%
- Cell Viability Avg ([7]; FIG. 8B, ES2, 12 hr, 0.5 μM, pH 6.6-6.8): 47%
- Cell Viability Avg ([7]; FIG. 8B, ES2, 12 hr, 0.5 μM, pH 7.2-7.6): 13%
- Cell Viability Avg ([7]; FIG. 8B, ES2, 24 hr, 1 μM, pH 6.6-6.8): 35%
- Cell Viability Avg ([7]; FIG. 8B, ES2, 24 hr, 1 μM, pH 7.2-7.6): 15%
- Cell Viability Avg ([7]; FIG. 10B, ES2, 12 hr, 0.5 μM, pH 6.6-6.7): 47%
- Cell Viability Avg ([7]; FIG. 10B, ES2, 12 hr, 0.5 μM, pH 7.4-7.6): 13%
- Cell Viability Avg ([8]; FIG. 7C, OVCAR3, 2 hr, 3 μM, pH 6.3-6.4): 57%
- Cell Viability Avg ([8]; FIG. 7C, OVCAR3, 2 hr, 3 μM, pH 7.4-7.6): 24%
- Cell Viability Avg ([8]; FIG. 7G, OVCAR3, 2 hr, 2 μM, pH 6.2-6.4): 60%
- Cell Viability Avg ([8]; FIG. 7G, OVCAR3, 2 hr, 2 μM, pH 6.4-6.5): 55%
- Cell Viability Avg ([8]; FIG. 7G, OVCAR3, 2 hr, 2 μM, pH 6.6-6.7): 58%
- Cell Viability Avg ([8]; FIG. 7G, OVCAR3, 2 hr, 2 μM, pH 6.8-6.9): 46%
- Cell Viability Avg ([8]; FIG. 7G, OVCAR3, 2 hr, 2 μM, pH 7.1-7.3): 51%
- Cell Viability Avg ([8]; FIG. 7G, OVCAR3, 2 hr, 2 μM, pH 7.2-7.5): 48%
- Cell Viability Avg ([8]; FIG. 10A, OVCAR3, 6 hr, 1 μM, pH 6.5-6.7): 81%
- Cell Viability Avg ([8]; FIG. 10A, OVCAR3, 6 hr, 1 μM, pH 7.3-7.6): 51%
- intratumoral concentration [9]: 0.5 to 5 mM
